Molecules are shown by their SMILES.

In this test the target is Cdc7/ASK (Homo sapiens, UniProt O00311). Kind of test: Cdc7 biochemical assay Method 1: 384 well ELISA, MCM2 whole protein substrate, Phospho MCM2 (S53) antibody. Details: purchased. Particulars: ATP 2 μM, 90 minutes, read-out: Biochemical method 1 (pIC50) (converted). Summed up: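 Commercial Cdc7/ASK phosphorylates plate-bound MCM2 with 2 μM ATP in Tris pH 8.5/MgCl2/DTT, 4% DMSO, 90 min at room temperature. Phospho-MCM2 (S53) detected by antibody ELISA with AP/PNPP absorbance. Inhibition normalised to DMSO and no-enzyme controls; IC50 from curve fit.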
Sequence of Cdc7/ASK (O00311 whole entry): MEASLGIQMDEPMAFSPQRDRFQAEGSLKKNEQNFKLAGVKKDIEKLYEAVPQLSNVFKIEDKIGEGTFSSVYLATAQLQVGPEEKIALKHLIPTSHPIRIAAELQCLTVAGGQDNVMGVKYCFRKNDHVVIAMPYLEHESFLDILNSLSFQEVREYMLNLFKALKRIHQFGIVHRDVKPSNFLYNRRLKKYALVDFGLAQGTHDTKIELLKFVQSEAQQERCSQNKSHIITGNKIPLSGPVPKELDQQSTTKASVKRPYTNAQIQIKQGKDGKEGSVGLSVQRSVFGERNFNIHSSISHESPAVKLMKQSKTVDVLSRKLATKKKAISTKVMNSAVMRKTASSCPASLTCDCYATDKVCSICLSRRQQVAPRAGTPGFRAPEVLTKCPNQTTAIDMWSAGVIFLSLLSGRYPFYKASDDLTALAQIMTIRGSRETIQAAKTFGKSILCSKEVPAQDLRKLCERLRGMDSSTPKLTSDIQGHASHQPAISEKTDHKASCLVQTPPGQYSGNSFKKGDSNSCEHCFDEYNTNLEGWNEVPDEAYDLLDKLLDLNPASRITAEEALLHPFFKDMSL
Sequence of Cdc7/ASK (Q9UBU7 whole entry partner): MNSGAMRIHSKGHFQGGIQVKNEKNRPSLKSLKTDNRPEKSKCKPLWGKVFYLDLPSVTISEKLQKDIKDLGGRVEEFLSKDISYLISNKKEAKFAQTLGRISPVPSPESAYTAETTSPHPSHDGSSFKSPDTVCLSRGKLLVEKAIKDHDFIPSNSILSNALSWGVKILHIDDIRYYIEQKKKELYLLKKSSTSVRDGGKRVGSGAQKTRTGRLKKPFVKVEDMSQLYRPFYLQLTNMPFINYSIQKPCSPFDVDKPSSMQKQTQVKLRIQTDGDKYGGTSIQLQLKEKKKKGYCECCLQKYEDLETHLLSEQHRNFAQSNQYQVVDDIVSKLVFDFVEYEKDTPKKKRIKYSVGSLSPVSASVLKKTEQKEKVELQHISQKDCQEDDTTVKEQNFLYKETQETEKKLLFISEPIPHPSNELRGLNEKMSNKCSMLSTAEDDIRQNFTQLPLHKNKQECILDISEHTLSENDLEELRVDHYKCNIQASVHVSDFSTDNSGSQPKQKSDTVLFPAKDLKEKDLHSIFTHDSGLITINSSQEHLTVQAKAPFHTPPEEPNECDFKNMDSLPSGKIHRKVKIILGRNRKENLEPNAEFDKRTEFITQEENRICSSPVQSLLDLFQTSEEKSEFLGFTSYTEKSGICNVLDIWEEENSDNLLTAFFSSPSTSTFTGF
In the case of `O=c1[nH]c(-c2scnc2Cl)nc(C2CCOCC2)c1Cl` [Compound 4, 5-chloro-2-(4-chlorothiazol-5-yl)-4-tetrahydropyran-4-yl-1H-pyrimidin-6-one], the IC50 was 1.62 nM.
`Cc1ncsc1-c1nc(C2CCOCC2)c(Cl)c(=O)[nH]1` [Compound 6, 5-chloro-2-(4-methylthiazol-5-yl)-4-tetrahydropyran-4-yl-1H-pyrimidin-6-one]: the IC50 was 3.8 nM.
To `O=c1[nH]c(-c2scnc2C(F)(F)F)nc(C2CCOCC2)c1Cl` [Compound 14, 5-chloro-4-tetrahydropyran-4-yl-2-[4-(trifluoromethyl)thiazol-5-yl]-1H-pyrimidin-6-one] belongs 1.82 nM; to `O=c1[nH]c(-c2cn[nH]c2C(F)(F)F)nc(C2CCOCC2)c1Cl` [Compound 17, 5-chloro-4-tetrahydropyran-4-yl-2-[5-(trifluoromethyl)-1H-pyrazol-4-yl]-1H-pyrimidin-6-one], 1.2 nM.
The figure for `Cc1ncsc1-c1nc(N2CCN[C@@H](C(F)(F)F)C2)c(Cl)c(=O)[nH]1` [Compound 28, 5-chloro-2-(4-methylthiazol-5-yl)-4-[(3R)-3-(trifluoromethyl)piperazin-1-yl]-1H-pyrimidin-6-one] is 2.09 nM.

For the origin of these results see patent publication US11766434B2, “Pyrimidinone derivatives as CDC7 inhibitors” (Cancer Research Technology Limited, priority 2016, dated 2023).
